From ChEMBL document CHEMBL1201862, “PubChem BioAssay data set” (2004)
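Dose response: 5 concentrations. Exposure: 48 h. Format: 96-well plates. Endpoint: linear interpolation; highest concentration if not reached. GI50 is the concentration that inhibits growth by half.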 The source made the active and inactive calls. No stated cut-off is given here; in the data, active = GI50 up to about 1.1 µM and inactive = higher.

How the values were obtained:
Experiment in all cases: growth of human tumour cells (NCI), 48 h
Malme-3M = tested on: Malme-3M
LOX IMVI = tested on: LOX IMVI
NCI-H522 = tested on: NCI-H522
HCT-15 = tested on: HCT-15
UACC-62 = tested on: UACC-62
UACC-257 = tested on: UACC-257
SN12C = tested on: SN12C
MDA-N = tested on: MDA-N
HL-60 = tested on: HL-60
SF-268 = tested on: SF-268
OVCAR-8 = tested on: OVCAR-8
CCRF-CEM = tested on: CCRF-CEM
TK-10 = tested on: TK-10
A498 = tested on: A498
OVCAR-3 = tested on: OVCAR-3
SR = tested on: SR
CAKI-1 = tested on: CAKI-1
SK-MEL-2 = tested on: SK-MEL-2
SF-539 = tested on: SF-539
HCC 2998 = tested on: HCC 2998

Row | SMILES | GI50 (Malme-3M) | GI50 (LOX IMVI) | GI50 (NCI-H522) | GI50 (HCT-15) [µM] | GI50 (UACC-62) | GI50 (UACC-257) | GI50 (SN12C) | GI50 (MDA-N) | GI50 (HL-60) | GI50 (SF-268) | GI50 (OVCAR-8) | GI50 (CCRF-CEM) | GI50 (TK-10) | GI50 (A498) | GI50 (OVCAR-3) | GI50 (SR) | GI50 (CAKI-1) | GI50 (SK-MEL-2) | GI50 (SF-539) | GI50 (HCC 2998)
1 | c1c[nH]c(CN2CCN(Cc3ncc[nH]3)CC2)n1 | > 100 µM (inactive) | > 100 µM (inactive) | > 100 µM (inactive) | > 100 | > 100 µM (inactive) | > 100 µM (inactive) | > 100 µM (inactive) | > 100 µM (inactive) | > 100 µM (inactive) | > 100 µM (inactive) | > 100 µM (inactive) | > 100 µM (inactive) | > 100 µM (inactive) | > 100 µM (inactive) | > 100 µM (inactive) | > 100 µM (inactive) | > 100 µM (inactive) | > 100 µM (inactive) | > 100 µM (inactive) | –
2 | COC(=O)c1cc(O)nc(O)n1 | > 100 µM (inactive) | > 100 µM (inactive) | > 100 µM (inactive) | > 100 | > 100 µM (inactive) | > 100 µM (inactive) | > 100 µM (inactive) | > 100 µM (inactive) | > 100 µM (inactive) | > 100 µM (inactive) | > 100 µM (inactive) | – | > 100 µM (inactive) | > 100 µM (inactive) | > 100 µM (inactive) | > 100 µM (inactive) | > 100 µM (inactive) | > 100 µM (inactive) | – | –
3 | O=C1Nc2ccccc2/C1=N/NC(=S)N1CCCCC1 | 0.234 µM (active) | 0.418 µM (active) | 2.79 µM (inactive) | 0.19 | 1.15 µM (inactive) | – | 2.17 µM (inactive) | 1.48 µM (inactive) | – | 0.493 µM (active) | 0.317 µM (active) | – | 0.295 µM (active) | 0.356 µM (active) | 0.145 µM (active) | 0.675 µM (active) | 0.904 µM (active) | 1.79 µM (inactive) | 0.082 µM (active) | 1.27 µM (inactive)
4 | CN(C)CCOC1(Cc2ccc(Cl)cc2Cl)CCC(C(C)(C)C)CC1 (stereo unspecified) | 2.25 µM (inactive) | 1.44 µM (inactive) | 1.79 µM (inactive) | 1.85 | 2.12 µM (inactive) | 2.04 µM (inactive) | 1.65 µM (inactive) | 1.81 µM (inactive) | – | 5.01 µM (inactive) | 1.94 µM (inactive) | 1.86 µM (inactive) | 2.62 µM (inactive) | 2.88 µM (inactive) | 1.71 µM (inactive) | 2.52 µM (inactive) | 2.25 µM (inactive) | 1.72 µM (inactive) | 4.36 µM (inactive) | 1.63 µM (inactive)
5 | COc1cc(/C=C/c2cc(/C=C/c3ccc(O)c(OC)c3)oc(=O)c2)ccc1O | 2.66 µM (inactive) | 3.71 µM (inactive) | 2.87 µM (inactive) | 3.12 | 4.69 µM (inactive) | 5.25 µM (inactive) | 5.53 µM (inactive) | 4.7 µM (inactive) | – | 3.94 µM (inactive) | 4.12 µM (inactive) | 3.64 µM (inactive) | 3.78 µM (inactive) | 3.9 µM (inactive) | 2.36 µM (inactive) | 3.07 µM (inactive) | 3.61 µM (inactive) | 3.98 µM (inactive) | 6.79 µM (inactive) | 1.81 µM (inactive)
6 | N/C(=N\c1ccc(Cl)cc1)NS(=O)(=O)c1ccc(S(=O)(=O)c2ccccc2)s1 | 20 µM (inactive) | 16.3 µM (inactive) | 14.5 µM (inactive) | 17.5 | 11.3 µM (inactive) | 14.8 µM (inactive) | 17.5 µM (inactive) | 18.5 µM (inactive) | 22.3 µM (inactive) | 19.4 µM (inactive) | 20 µM (inactive) | – | 21.2 µM (inactive) | 17.4 µM (inactive) | 25.4 µM (inactive) | 24.8 µM (inactive) | – | 14.1 µM (inactive) | 22.7 µM (inactive) | –
7 | O=C1C[C@H](CCC(=O)OCc2ccccc2)NC(=O)C[C@H](CCC(=O)OCc2ccccc2)NC(=O)C[C@H](CCC(=O)OCc2ccccc2)N1 | > 100 µM (inactive) | > 100 µM (inactive) | > 100 µM (inactive) | > 100 | 88.9 µM (inactive) | > 100 µM (inactive) | > 100 µM (inactive) | > 100 µM (inactive) | – | – | > 100 µM (inactive) | > 100 µM (inactive) | 6.24 µM (inactive) | 7.57 µM (inactive) | 97.1 µM (inactive) | > 100 µM (inactive) | > 100 µM (inactive) | 17.1 µM (inactive) | 5.64 µM (inactive) | > 100 µM (inactive)
8 | O=C(O)CC12CC3CC(CC(O)(C3)C1)C2 | 34.7 µM (inactive) | > 100 µM (inactive) | 27.7 µM (inactive) | > 100 | > 100 µM (inactive) | > 100 µM (inactive) | > 100 µM (inactive) | > 100 µM (inactive) | – | 31 µM (inactive) | > 100 µM (inactive) | – | > 100 µM (inactive) | > 100 µM (inactive) | 3.14 µM (inactive) | > 100 µM (inactive) | > 100 µM (inactive) | > 100 µM (inactive) | > 100 µM (inactive) | > 100 µM (inactive)
9 | CC(=O)OCc1cn(S(=O)(=O)c2ccc(C)cc2)cn1 | > 100 µM (inactive) | 47.5 µM (inactive) | 64 µM (inactive) | 18.5 | 75.2 µM (inactive) | – | > 100 µM (inactive) | 12.5 µM (inactive) | > 100 µM (inactive) | 37.2 µM (inactive) | > 100 µM (inactive) | 26.7 µM (inactive) | > 100 µM (inactive) | > 100 µM (inactive) | 24.2 µM (inactive) | 9.51 µM (inactive) | > 100 µM (inactive) | – | 16.4 µM (inactive) | > 100 µM (inactive)
10 | O=C1C(=Cc2ccccc2O)N=C(c2ccccc2)N1n1c(-c2ccccc2)nc2ccccc2c1=O | 45.7 µM (inactive) | 41.7 µM (inactive) | 33.1 µM (inactive) | 40.4 | 33.7 µM (inactive) | 29.9 µM (inactive) | 43 µM (inactive) | 32.4 µM (inactive) | 15.2 µM (inactive) | 21.3 µM (inactive) | 31.3 µM (inactive) | 28.4 µM (inactive) | 50.2 µM (inactive) | 21.5 µM (inactive) | – | 32.9 µM (inactive) | 25.8 µM (inactive) | – | 21.8 µM (inactive) | 30.7 µM (inactive)
11 | CCc1nn(CN2CCOCC2)c(=S)n1/N=C/c1ccc(-c2ccc(Cl)cc2)o1 | – | > 100 µM (inactive) | > 100 µM (inactive) | > 100 | – | > 100 µM (inactive) | – | > 100 µM (inactive) | 81.1 µM (inactive) | > 100 µM (inactive) | > 100 µM (inactive) | – | > 100 µM (inactive) | > 100 µM (inactive) | > 100 µM (inactive) | 80.5 µM (inactive) | > 100 µM (inactive) | > 100 µM (inactive) | > 100 µM (inactive) | –
12 | CC(=O)OCC1OC(c2nnc(C)o2)=CC(OC(C)=O)C1OC(C)=O (stereo unspecified) | > 100 µM (inactive) | > 100 µM (inactive) | > 100 µM (inactive) | – | – | > 100 µM (inactive) | > 100 µM (inactive) | > 100 µM (inactive) | > 100 µM (inactive) | > 100 µM (inactive) | > 100 µM (inactive) | > 100 µM (inactive) | > 100 µM (inactive) | > 100 µM (inactive) | > 100 µM (inactive) | > 100 µM (inactive) | > 100 µM (inactive) | – | > 100 µM (inactive) | –
13 | COc1cc(C2SC(=N)Nc3c2c(C)nn3C(=O)Cc2ccccc2)cc(OC)c1OC (stereo unspecified) | – | > 100 µM (inactive) | > 100 µM (inactive) | > 100 | > 100 µM (inactive) | > 100 µM (inactive) | > 100 µM (inactive) | > 100 µM (inactive) | > 100 µM (inactive) | > 100 µM (inactive) | > 100 µM (inactive) | > 100 µM (inactive) | > 100 µM (inactive) | > 100 µM (inactive) | – | > 100 µM (inactive) | > 100 µM (inactive) | – | > 100 µM (inactive) | > 100 µM (inactive)
14 | O=C1CC2c3ccccc3CCC2c2ccccc21 (stereo unspecified) | – | 15.8 µM (inactive) | 23.3 µM (inactive) | 14.1 | 20 µM (inactive) | 26.2 µM (inactive) | – | 6.64 µM (inactive) | 21.6 µM (inactive) | 27.5 µM (inactive) | 21.2 µM (inactive) | – | 35.2 µM (inactive) | 1 µM (active) | 13.3 µM (inactive) | 46.7 µM (inactive) | 33.2 µM (inactive) | 16.8 µM (inactive) | 16.3 µM (inactive) | 21.5 µM (inactive)
15 | NNc1ncnc2cccc(Cl)c12 | 2.02 µM (inactive) | – | > 100 µM (inactive) | > 100 | > 100 µM (inactive) | > 100 µM (inactive) | > 100 µM (inactive) | > 100 µM (inactive) | > 100 µM (inactive) | > 100 µM (inactive) | > 100 µM (inactive) | > 100 µM (inactive) | > 100 µM (inactive) | > 100 µM (inactive) | > 100 µM (inactive) | > 100 µM (inactive) | > 100 µM (inactive) | – | > 100 µM (inactive) | > 100 µM (inactive)
16 | CC1=NC(=Cc2ccc(Cl)cc2)C(=O)N1n1c(-c2ccccc2)nc2ccccc2c1=O | 33.2 µM (inactive) | 38.5 µM (inactive) | 6.92 µM (inactive) | 44.4 | 33.2 µM (inactive) | 25 µM (inactive) | 43.4 µM (inactive) | 35.1 µM (inactive) | 26.3 µM (inactive) | 51.9 µM (inactive) | 39.4 µM (inactive) | 37.8 µM (inactive) | 51.6 µM (inactive) | 24.6 µM (inactive) | – | 33.5 µM (inactive) | 17.8 µM (inactive) | – | 35.1 µM (inactive) | 38.8 µM (inactive)
